# Test results from patent US11292803B2, “Bioreducible N-oxide-based probes for imaging of hypoxia” (THE BOARD OF TRUSTEES OF THE UNIVERSITY OF ILLINOIS, priority 2018, dated 2022).
# Assays:
# [1] = system: CYP450-rich rat liver microsomes
# Experimental: FIG. 4. […] (a) Representative PA image (770 nm) of reaction mixtures incubated under normoxic or hypoxic conditions for 2 h, then quenched with an equal volume of acetonitrile. Dashed lines indicate positioning of FEP tubes. (b) Change in PA signal (770 nm) produced after 2 h incubation of HyP-1 (10 μM) with rat liver microsomes (RLM) (200 μg/mL) and NADPH (50 μM) in normoxic and hypoxic conditions (n=3). (c) Ratiometric fluorescence turn-on after 2 h incubation of HyP-1 (2 μM) with RLM ([…]) and NADPH (50 μM) in normoxic or hypoxic conditions (n=3). (d) Normalized fluorescent turn-on after 1 h hypoxic incubation of HyP-1 (2 μM) with RLM (100 μg/mL) and NADPH (50 μM) under various conditions. Statistical significance represents a comparison to the hypoxic control (n=6). Results with error bars are represented as mean±SD. **p<0.01, ***p<0.001, ****p<0.0001.
# The responsiveness of HyP-1 to hypoxia was first evaluated in vitro via fluorescence by incubating HyP-1 with CYP450-rich rat liver microsomes under atmospheric (normoxic) and oxygen-deprived (hypoxic) conditions. […] The PA response of HyP-1 under identical conditions was evaluated by quenching the reaction mixtures with an equal volume of acetonitrile and transferring the solutions into fluorinated ethylene propylene (FEP) tubes, which were inserted into the centre of a 2 cm thick agarose-based tissue-mimicking phantom.
# For hypoxic assays only, cuvettes were sealed with septa, then evacuated and filled with N2 (×3) prior to use. Potassium phosphate buffer (0.1 M, pH 7.4) and NADPH (0.5 mM) were degassed with N2 for 30 minutes. For all assays, phosphate buffer (889 μL) rat liver microsomes (200 μg/mL) and HyP-1 (1 μL, 2 mM in DMSO) were added to the cuvette and pre-incubated at 37° C. for 5 minutes. NADPH (100 μL) was added and incubation continued with fluorescence spectra acquisition occurring at the indicated time points. Spectra were acquired according to the following parameters: λex=672, emission range=685-800 nm and λex=750, emission range=760-900 nm. For BIPY and DPI experiments, the compounds were added from stock solutions (1 M BIPY in DMSO and 50 mM DPI in deionized water) following the 5 minute preincubation, and the buffer volume was adjusted such that the total volume in the cuvette was equal to 1 mL. Deactivated microsomes were prepared by heating in a 45° C. water bath for 30 minutes.
# [2] = system: 4T1 cells; assay: Ratiometric fluorescence of cells, IVIS Spectrum; type: cell-based, murine; conditions: hypoxic 4T1 cells
# Experimental: Ratiometric fluorescence imaging was also performed on 4T1 cells cultured in 6-well plates using an IVIS Spectrum imaging system. Cells were stained with a 5 μM solution of HyP-1 and incubated in either normoxic or hypoxic conditions for 4 hours (FIG. 5c). […] To further verify the in vitro results and determine the cellular factors responsible for HyP-1 reduction, cells were also stained with HyP-1 solutions containing either BIPY or DPI at multiple concentrations and incubated under hypoxic conditions.
# Authenticated 4T1 cells were purchased from ATCC. Cells were grown in RPMI 1640 medium supplemented with 10% fetal bovine serum. Cells were cultured at 37° C. in 5% CO2 and 20% 02 for normoxic conditions. Hypoxic cell culture was performed by incubating cells in a sealed container with a Mitsubishi AnaeroPack™ anaerobic gas generator. Hypoxic conditions were verified with the use of a Mitsubishi RT Anaero-Indicator.
# For cellular imaging using the IVIS Spectrum imaging system, cells were plated in a 6-well plate at an initial density of 1.7×10^4 cells/mL and allowed to grow until 60-80% confluent (approximately 3 days). Media was removed and cells were washed with PBS. A […] solution of HyP-1 in serum-free medium was added, and cells were incubated under normoxic or hypoxic conditions for 4 hours. For BIPY and DPI experiments, the staining solution was supplemented with the compound at the appropriate concentration, and ratiometric turn-on was reported relative to a vehicle control. Images were obtained using excitation and emission filter sets of 675/720 nm and 745/800 nm. Regions of interest (ROIs) were drawn around cell-containing wells, and ratiometric signal was calculated by determining the ratio of radiant efficiency corresponding to 800 nm and 720 nm emissions.
# [3] = Photophysical characterization (absorbance, emission, extinction coefficient, quantum yield); type: physicochemical
# [4] = system: ischemic hindlimb tissue; assay: In vivo fluorescence imaging of hindlimb ischemia model; design: species or system BALB/c mice; conditions: 5 mM co-administered, ischemic hindlimb
# Experimental: To visualize the response of HyP-1 in a model of rapidly developing hypoxia, a murine hindlimb ischemia model of peripheral artery disease was employed. Ischemia was induced in the right hindlimb of BALB/c mice via ligation of the femoral artery. […] After a 1-hour recovery period, HyP-1 (50 μL, 50 μM) was administered via intramuscular injection into both hindlimbs of the mouse. To visualize the time-dependent response of HyP-1 in the ischemic and non-ischemic tissue, ratiometric fluorescence imaging was performed over the course of 1 hour immediately following injection. […]
# All in vivo imaging experiments were performed with the approval of the Institutional Animal Care and Use Committee of the University of Illinois at Urbana-Champaign, following the principles outlined by the American Physiological Society on research animal use. […] Animals that underwent unsuccessful surgery as determined by laser Doppler perfusion imaging were excluded from analysis.
# Images were obtained using epi-fluorescence with excitation filters of 675 and 745 and corresponding emission filters of 720 and 800, respectively. […] ROIs of equal area were drawn around signals, and the total radiant efficiency in each ROI was determined. Ratiometric signal was calculated by determining the ratio of radiant efficiency corresponding to 800 nm and 720 nm emissions.
Compound,Φ ([3]; Table 2),ε ([3]; Table 2),λabs ([3]; Table 2),other results
"[Cl-].c1ccc([I+]c2ccccc2)cc1 [DPI, diphenyliodonium chloride, reference compound]",–,–,–,"effect on HyP-1 turn-on response / reduction by rat liver microsomes [1]: inhibition of HyP-1 reduction was achieved; inhibition of HyP-1 ratiometric fluorescence in cells ([2]; multiple concentrations (100, 500 μM)): significant dose-dependent inhibition"
"CCN(CC)c1ccc(C2=[N+]3C(=Nc4c(-c5ccccc5)cc(-c5ccc([N+]([O-])(CC)CC)cc5)n4[B-]3(F)F)C(c3ccccc3)=C2)cc1 [rHyP-1, 4-(7-(4-(diethylamino)phenyl)-5,5-difluoro-1,9-diphenyl-5H-5λ^4,6λ^4-dipyrrolo[1,2-c:2′,1′-f][1,3,5,2]triazaborinin-3-yl)-N,N-diethylaniline oxide]",0.013,5.8 × 10^4 M^−1 · cm^1,749 nm,–
"CCN(CC)c1ccc(-c2cc(-c3ccccc3)c3n2[B-](F)(F)[N+]2=C(c4ccccc4)C=C(c4ccccc4)C2=N3)cc1 [red-HyP-650, 4-(5,5-difluoro-1,7,9-triphenyl-5H-54,64-dipyrrolo[1,2-c:2′,1′-f][1,3,5,2]triazaborinin-3-yl)-N,N-diethylaniline]",–,–,–,Φ (fluorescence quantum yield) ([3]; in CHCl3 (Table 3)): 0.069; ε ([3]; in CHCl3 (Table 3)): 8.1 × 10^4 M^−1 · cm^1; λabs ([3]; in CHCl3 (Table 3)): 740 nm
F[B-]1(F)n2c(-c3ccc(N4CCCCC4)cc3)cc(-c3ccccc3)c2N=C2C(c3ccccc3)=CC(c3ccc(N4CCCCC4)cc3)=[N+]21 [red-rHyP-4],0.017,7.6 × 10^4 M^−1 · cm^1,787 nm,–
CCCN(CCC)c1ccc(C2=[N+]3C(=Nc4c(-c5ccccc5)cc(-c5ccc([N+]([O-])(CCC)CCC)cc5)n4[B-]3(F)F)C(c3ccccc3)=C2)cc1 [rHyP-3],0.013,8.0 × 10^4 M^−1 · cm^1,747 nm,–
"c1ccc(-c2ccccn2)nc1 [BIPY, 2,2′-bipyridine, reference compound]",–,–,–,effect on HyP-1 turn-on response / reduction by rat liver microsomes [1]: no significant inhibition; ratiometric fluorescence enhancement with co-administration versus HyP-1 alone [4]: statistically indistinguishable; effect on cellular response to HyP-1 ([2]; 1 mM): no effect; effect on ratiometric fluorescence of HyP-1 in cells ([2]; 5 mM): only slight reduction
[O-][N+]1(c2ccc(-c3cc(-c4ccccc4)c4n3[B-](F)(F)[N+]3=C(c5ccc(N6CCCCC6)cc5)C=C(c5ccccc5)C3=N4)cc2)CCCCC1 [rHyP-4],0.011,9.1 × 10^4 M^−1 · cm^1,748 nm,–
"CC[N+]([O-])(CC)c1ccc(-c2cc(-c3ccccc3)c3n2[B-](F)(F)[N+]2=C(c4ccccc4)C=C(c4ccccc4)C2=N3)cc1 [HyP-650, 4-(5,5-difluoro-1,7,9-triphenyl-5H-54,64-dipyrrolo[1,2-c:2′,1′-f][1,3,5,2]triazaborinin-3-yl)-N,N-diethylaniline oxide]",–,–,–,Φ (fluorescence quantum yield) ([3]; in CHCl3 (Table 3)): 0.027; ε ([3]; in CHCl3 (Table 3)): 4.0 × 10^4 M^−1 · cm^1; λabs ([3]; in CHCl3 (Table 3)): 650 nm
CN(C)c1ccc(C2=[N+]3C(=Nc4c(-c5ccccc5)cc(-c5ccc([N+](C)(C)[O-])cc5)n4[B-]3(F)F)C(c3ccccc3)=C2)cc1 [rHyP-2],0.021,4.6 × 10^4 M^−1 · cm^1,738 nm,–
[O-][N+]1(c2ccc(-c3cc(-c4ccccc4)c4n3[B-](F)(F)[N+]3=C(c5ccc(N6CCOCC6)cc5)C=C(c5ccccc5)C3=N4)cc2)CCOCC1 [rHyP-5],0.049,9.2 × 10^4 M^−1 · cm^1,718 nm,–
"CCN(CC)c1ccc(C2=[N+]3C(=Nc4c(-c5ccccc5)cc(-c5ccc(N(CC)CC)cc5)n4[B-]3(F)F)C(c3ccccc3)=C2)cc1 [red-rHyP-1, 4,4′-(5,5-difluoro-1,9-diphenyl-5H-4λ^4,5λ^4-dipyrrolo[1,2-c:2′,1′-f][1,3,5,2]triazaborinine-3,7-diyl)bis(N,N-diethylaniline)]",0.013,9.9 × 10^4 M^−1 · cm^1,818 nm,–
F[B-]1(F)n2c(-c3ccc(N4CCOCC4)cc3)cc(-c3ccccc3)c2N=C2C(c3ccccc3)=CC(c3ccc(N4CCOCC4)cc3)=[N+]21 [red-rHyP-5],0.085,7.6 × 10^4 M^−1 · cm^1,758 nm,–
CCCN(CCC)c1ccc(C2=[N+]3C(=Nc4c(-c5ccccc5)cc(-c5ccc(N(CCC)CCC)cc5)n4[B-]3(F)F)C(c3ccccc3)=C2)cc1 [red-rHyP-3],0.010,9.3 × 10^4 M^−1 · cm^1,826 nm,–
CN(C)c1ccc(C2=[N+]3C(=Nc4c(-c5ccccc5)cc(-c5ccc(N(C)C)cc5)n4[B-]3(F)F)C(c3ccccc3)=C2)cc1 [red-rHyP-2],0.023,8.2 × 10^4 M^−1 · cm^1,798 nm,–
